A word on the IC50: it is the concentration that gives 50% inhibition.

Molecules are shown by their SMILES.

Experimental findings from US20240174648A1, “Small Molecule Compound” (Technoderma Medicines Pte Ltd, priority 2019, published 2024) are described below.

Holding throughout (format): biochemical
In assay [1] the target is JAK1 (Homo sapiens, UniProt P23458). As to the kind of experiment: JAK kinase inhibition assay (EZ Reader, peptide substrate phosphorylation) - JAK1. The note with it: JAK1 kinase 20 nM; 8 concentration points, max 10 μM. The procedure, abridged: (§1)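 Microfluidic mobility-shift detection of fluorescent peptide substrate phosphorylation, with JAK1 at 20 nM and JAK2, JAK3 and Tyk2 each at 1 nM final, in 20 mM HEPES pH 7.4, 10 mM MgCl2, 1 mM DTT. Reactions run at room temperature to 20–30% conversion, then EDTA-stopped. Compounds tested at 8 three-fold dilutions from 10 μM top final; IC50 from conversion curves.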

Assay [2] concerns the target T1, JAK3 (Homo sapiens, UniProt P52333).
T1 sequence (P52333 1-1124): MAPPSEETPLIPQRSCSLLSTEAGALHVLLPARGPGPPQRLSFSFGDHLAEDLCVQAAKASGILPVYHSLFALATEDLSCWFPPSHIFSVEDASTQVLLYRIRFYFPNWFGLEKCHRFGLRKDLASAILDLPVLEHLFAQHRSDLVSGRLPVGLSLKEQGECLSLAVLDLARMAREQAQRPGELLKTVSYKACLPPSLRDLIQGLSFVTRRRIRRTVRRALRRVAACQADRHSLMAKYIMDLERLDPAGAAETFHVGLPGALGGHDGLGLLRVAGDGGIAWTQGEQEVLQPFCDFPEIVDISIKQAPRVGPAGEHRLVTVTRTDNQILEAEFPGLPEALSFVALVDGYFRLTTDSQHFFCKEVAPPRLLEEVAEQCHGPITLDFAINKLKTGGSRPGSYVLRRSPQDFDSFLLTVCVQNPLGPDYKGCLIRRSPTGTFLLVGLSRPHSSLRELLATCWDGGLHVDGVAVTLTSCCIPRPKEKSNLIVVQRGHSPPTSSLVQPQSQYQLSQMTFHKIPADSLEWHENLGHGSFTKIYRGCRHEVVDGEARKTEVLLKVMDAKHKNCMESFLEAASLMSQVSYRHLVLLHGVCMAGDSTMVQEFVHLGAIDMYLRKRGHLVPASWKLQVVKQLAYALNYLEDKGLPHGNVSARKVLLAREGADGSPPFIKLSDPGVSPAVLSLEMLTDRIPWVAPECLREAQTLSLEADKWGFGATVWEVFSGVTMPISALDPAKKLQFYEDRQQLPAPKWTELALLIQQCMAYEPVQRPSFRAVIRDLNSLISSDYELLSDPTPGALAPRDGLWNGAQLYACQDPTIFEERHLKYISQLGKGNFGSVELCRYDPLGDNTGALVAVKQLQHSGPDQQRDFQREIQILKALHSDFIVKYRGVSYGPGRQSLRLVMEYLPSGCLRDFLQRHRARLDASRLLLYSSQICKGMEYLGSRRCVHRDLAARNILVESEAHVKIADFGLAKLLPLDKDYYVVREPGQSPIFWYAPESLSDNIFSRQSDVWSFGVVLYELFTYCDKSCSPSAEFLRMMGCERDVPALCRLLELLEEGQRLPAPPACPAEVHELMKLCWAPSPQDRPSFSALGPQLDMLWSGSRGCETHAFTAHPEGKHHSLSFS
The assay can be described thus: JAK kinase inhibition assay (EZ Reader, peptide substrate phosphorylation) - JAK3. The note with it: JAK3 kinase 1 nM; 8 concentration points, max 10 μM. From the text:
(§2) Assay for Identifying Inhibitory Effects of Compounds on JAK Kinases
(§3) Janus kinases (JAK), including JAK1, JAK2, JAK3 and Tyk2, transduce a cytokine-mediated signal through a JAK-STAT pathway. The kinases are 120-140 kDa in size and have 7 determined homology regions: JH1 to JH7. JH1 is an important region for enzymatic activity and has typical characteristics of tyrosine kinases. Phosphorylation of tyrosine leads to a change in the conformation of JAK protein, thereby promoting binding of substrate. The JAK-STAT system includes three main parts: receptors penetrating a cell membrane, Janus kinases binding to the receptors, and signal transducers and activators of transcription (STAT) for transmitting signals to a nucleus and DNA. When cytokines bind to receptors, JAK phosphorylates the receptors and attracts STAT proteins. The STAT proteins are also phosphorylated and combined with one another to form dimers. The dimers enter the nucleus and bind to DNA, thereby leading to gene transcription.
(§4) EZ Reader from PerkinElmer can be used to detect the phosphorylation of polypeptide substrates catalyzed by kinases. The device is based on microfluidic techniques, and can directly detect fluorescently labeled substrates and products. The separation step is achieved by controlling the pressure and electric field strength in the microfluidic chip. In kinase assays, a product conversion ratio is usually controlled to be 20-30%. A biological test is used to identify inhibitory effects of compounds on JAKs.
(§5) Compound powder was dissolved in DMSO, sealed and stored in a freezer under −20° C. The in-house compound Ref1 was used as a positive control for JAK1, JAK2 and Tyk2 tests, and Ref2 was used as a positive control for JAK3 tests.
(§6) S2.8. Assay buffer: 20 mM HEPES buffer, pH 7.4, 10 mM magnesium chloride, 0.01% bovine serum albumin BSA, 0.0005% Tween-20 and 1 mM dithiothreitol solution.
(§7) S2.9. Stop buffer: 180 mM HEPES buffer, 20 mM ethylenediaminetetraacetic acid and 0.2% coating reagent 3.
(§8) S2.10. Separation buffer: 100 mM HEPES buffer, 10 mM ethylenediaminetetraacetic acid, 0.0005% Tween 20, 0.1% coating reagent 3 and 1% dimethyl sulfoxide.
The compound was dissolved in dimethyl sulfoxide and diluted to 10 mM concentration, a certain volume of solution was taken and diluted to 0.6 mM concentration, 10 μL of the 0.6 mM dilution was added to a 384-well microplate, and then was diluted 3-fold with a total of 8 concentration points. […]
Positive control (HPE1): Ref2, final concentration: 10 μM
(§9) Negative control (ZPE): DMSO, final content: 1.6%
(§10) Compounds: maximum final concentration: 10 μM; 3-fold dilution, 8 concentration points and 2 duplicates.
(§11) S4.1. 250 nL of the compound was added to each well of the assay microplate by using ECHO, and centrifuged at 1000 rpm for 1 minute.
(§12) S4.2. 5 μL of the assay buffer was added and agitated for a few seconds to fully dissolve the compound.
(§13) S4.3. 5 μL of 3× substrate solution and 5 μL of 3× kinase solution were added and centrifuged at 800 rpm for 1 minute.
(§14) S4.4. Final concentrations of JAK1, JAK2, JAK3 and Tyk2 kinases in the reaction system were 20 nM, 1 nM, 1 nM and 1 nM respectively.
(§15) S4.5. Incubation at room temperature, where kinases had time differences, and different batches of kinases had time differences.
(§16) S4.6. When 20%-30% of the reaction completed, 15 μL of stop buffer was added to stop the reaction, and centrifuged at 1000 rpm for 2 minutes.
(§17) S4.7. The microplates were placed on EZ Reader for reading.
(§18) S4.8. Readings on EZ Reader were calculated by using a peak height, where product conversion ratio (%)=product/(product+substrate)*100.
(§19) 5. Data Processing: IC50 calculation
(§20) A graphing software Xlfit was used to form a concentration curve of the test compound, and an IC50 value was calculated.
(§21) “A” means “≥10 μM”; “B” means “≥1 μM and <10 μM”; “C” means “≥0.1 μM and <1 μM”; and “D” means “<0.1 μM”.

In assay [3] the target is Tyk2 (Homo sapiens, UniProt P29597). The assay can be described thus: JAK kinase inhibition assay (EZ Reader, peptide substrate phosphorylation) - Tyk2. The note with it: Tyk2 kinase 1 nM; 8 concentration points, max 10 μM. In outline:
as §1

Assay [4] concerns the target JAK2 (Homo sapiens, UniProt O60674). The assay can be described thus: JAK kinase inhibition assay (EZ Reader, peptide substrate phosphorylation) - JAK2. The note with it: JAK2 kinase 1 nM; 8 concentration points, max 10 μM.
From the text: as §2, §3, §4, §5, §6, §7, §8
The compound was dissolved in dimethyl sulfoxide and diluted to 10 mM concentration, a certain volume of solution was taken and diluted to 0.6 mM concentration, 10 μL of the 0.6 mM dilution was added to a 384-well microplate, and then was diluted 3-fold with a total of 8 concentration points.
Positive control (HPE1): Ref1, final concentration: 10 μM […]
as §9, §10, §11, §12, §13, §14, §15, §16, §17, §18, §19, §20, §21

Sequence of Tyk2 (P29597 whole entry): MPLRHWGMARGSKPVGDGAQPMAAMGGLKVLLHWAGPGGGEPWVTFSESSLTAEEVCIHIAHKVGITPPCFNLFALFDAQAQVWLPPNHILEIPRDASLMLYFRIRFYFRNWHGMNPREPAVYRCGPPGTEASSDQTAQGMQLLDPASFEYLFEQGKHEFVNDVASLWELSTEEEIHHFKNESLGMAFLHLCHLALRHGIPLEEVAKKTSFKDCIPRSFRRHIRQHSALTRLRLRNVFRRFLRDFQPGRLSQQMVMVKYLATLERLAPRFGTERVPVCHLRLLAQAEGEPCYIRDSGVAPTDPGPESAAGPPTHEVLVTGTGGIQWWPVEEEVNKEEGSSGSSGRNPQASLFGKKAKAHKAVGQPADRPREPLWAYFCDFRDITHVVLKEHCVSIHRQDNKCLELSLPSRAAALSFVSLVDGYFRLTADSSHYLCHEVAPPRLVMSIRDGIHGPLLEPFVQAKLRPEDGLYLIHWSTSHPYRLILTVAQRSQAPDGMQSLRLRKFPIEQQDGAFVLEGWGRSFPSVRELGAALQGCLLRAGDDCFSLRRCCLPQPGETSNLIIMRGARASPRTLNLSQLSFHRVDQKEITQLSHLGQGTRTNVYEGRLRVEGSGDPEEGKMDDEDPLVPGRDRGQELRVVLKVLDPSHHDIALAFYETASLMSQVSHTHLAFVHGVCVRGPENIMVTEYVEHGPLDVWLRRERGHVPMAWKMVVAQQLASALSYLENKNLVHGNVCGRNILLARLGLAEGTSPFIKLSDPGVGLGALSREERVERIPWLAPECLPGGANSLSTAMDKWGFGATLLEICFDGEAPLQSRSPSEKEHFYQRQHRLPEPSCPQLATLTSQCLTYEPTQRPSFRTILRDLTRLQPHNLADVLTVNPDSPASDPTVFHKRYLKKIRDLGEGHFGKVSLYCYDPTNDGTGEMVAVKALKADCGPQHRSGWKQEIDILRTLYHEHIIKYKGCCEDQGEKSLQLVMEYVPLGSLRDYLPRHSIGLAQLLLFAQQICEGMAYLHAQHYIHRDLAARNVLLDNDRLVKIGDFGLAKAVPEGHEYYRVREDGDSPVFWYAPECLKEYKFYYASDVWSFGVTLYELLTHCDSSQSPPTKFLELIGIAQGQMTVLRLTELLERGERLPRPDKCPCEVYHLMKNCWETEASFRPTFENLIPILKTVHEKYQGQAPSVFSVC
Sequence of JAK2 (O60674 whole entry): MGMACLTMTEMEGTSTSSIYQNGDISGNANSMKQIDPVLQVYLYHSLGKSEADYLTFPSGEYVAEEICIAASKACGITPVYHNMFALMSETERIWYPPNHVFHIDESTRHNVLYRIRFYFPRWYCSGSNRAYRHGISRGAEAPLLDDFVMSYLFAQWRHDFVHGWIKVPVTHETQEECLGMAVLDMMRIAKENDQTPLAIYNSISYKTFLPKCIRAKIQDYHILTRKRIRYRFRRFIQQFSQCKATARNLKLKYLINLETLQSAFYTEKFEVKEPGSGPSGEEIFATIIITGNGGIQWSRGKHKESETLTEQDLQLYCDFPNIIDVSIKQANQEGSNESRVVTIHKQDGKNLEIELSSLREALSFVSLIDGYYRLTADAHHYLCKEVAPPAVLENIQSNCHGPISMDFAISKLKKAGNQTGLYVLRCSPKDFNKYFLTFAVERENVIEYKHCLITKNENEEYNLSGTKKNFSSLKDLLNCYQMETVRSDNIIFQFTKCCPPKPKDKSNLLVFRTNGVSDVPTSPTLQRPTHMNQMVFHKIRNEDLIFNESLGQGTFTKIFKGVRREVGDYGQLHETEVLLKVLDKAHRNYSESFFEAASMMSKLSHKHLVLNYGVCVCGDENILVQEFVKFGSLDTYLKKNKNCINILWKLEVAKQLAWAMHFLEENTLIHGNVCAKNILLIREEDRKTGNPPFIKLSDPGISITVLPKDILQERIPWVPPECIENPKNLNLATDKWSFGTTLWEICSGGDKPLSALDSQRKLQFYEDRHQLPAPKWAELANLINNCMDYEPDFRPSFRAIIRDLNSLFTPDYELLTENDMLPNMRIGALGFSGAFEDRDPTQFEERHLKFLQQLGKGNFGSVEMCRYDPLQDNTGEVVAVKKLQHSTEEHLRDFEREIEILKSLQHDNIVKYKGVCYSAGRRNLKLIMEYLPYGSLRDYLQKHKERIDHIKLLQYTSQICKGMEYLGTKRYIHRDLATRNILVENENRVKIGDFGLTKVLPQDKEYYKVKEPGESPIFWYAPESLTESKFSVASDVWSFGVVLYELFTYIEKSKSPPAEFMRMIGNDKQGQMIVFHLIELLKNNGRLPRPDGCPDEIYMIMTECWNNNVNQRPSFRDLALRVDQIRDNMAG
Sequence of JAK1 (P23458 whole entry): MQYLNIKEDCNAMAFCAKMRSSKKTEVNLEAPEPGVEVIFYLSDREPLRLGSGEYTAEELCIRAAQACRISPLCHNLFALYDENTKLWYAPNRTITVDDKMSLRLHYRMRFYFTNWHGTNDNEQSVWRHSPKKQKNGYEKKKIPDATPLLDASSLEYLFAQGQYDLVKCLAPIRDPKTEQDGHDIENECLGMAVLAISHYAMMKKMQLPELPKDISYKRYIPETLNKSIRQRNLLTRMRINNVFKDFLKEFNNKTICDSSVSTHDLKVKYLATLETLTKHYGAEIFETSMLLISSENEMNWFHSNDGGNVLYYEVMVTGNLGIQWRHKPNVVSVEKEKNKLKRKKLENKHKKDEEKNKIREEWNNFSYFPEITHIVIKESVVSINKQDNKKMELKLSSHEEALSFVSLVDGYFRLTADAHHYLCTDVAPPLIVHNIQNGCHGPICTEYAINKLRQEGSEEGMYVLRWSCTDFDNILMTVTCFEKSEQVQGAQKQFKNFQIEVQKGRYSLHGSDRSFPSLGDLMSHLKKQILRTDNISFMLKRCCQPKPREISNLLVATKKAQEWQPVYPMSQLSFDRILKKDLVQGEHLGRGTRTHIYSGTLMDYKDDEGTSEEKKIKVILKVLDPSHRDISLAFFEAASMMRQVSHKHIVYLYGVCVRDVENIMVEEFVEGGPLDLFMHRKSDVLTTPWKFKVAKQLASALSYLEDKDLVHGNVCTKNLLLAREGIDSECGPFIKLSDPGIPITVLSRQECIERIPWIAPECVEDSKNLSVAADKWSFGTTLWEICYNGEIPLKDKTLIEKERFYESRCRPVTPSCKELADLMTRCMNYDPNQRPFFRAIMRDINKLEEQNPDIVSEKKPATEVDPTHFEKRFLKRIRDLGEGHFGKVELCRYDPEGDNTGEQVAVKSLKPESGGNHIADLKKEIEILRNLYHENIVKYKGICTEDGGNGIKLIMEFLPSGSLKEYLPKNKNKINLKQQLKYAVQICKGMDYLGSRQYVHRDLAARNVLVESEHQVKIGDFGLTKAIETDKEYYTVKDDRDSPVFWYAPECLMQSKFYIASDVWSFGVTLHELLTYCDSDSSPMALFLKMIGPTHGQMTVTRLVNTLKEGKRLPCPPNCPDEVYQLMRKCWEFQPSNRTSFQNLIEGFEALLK

In the case of `Cn1cc(Nc2nccc(-c3ccc(NC(=O)C4CC4(F)F)nc3)n2)cn1` (stereo not shown) [TDM-180822, 2,2-difluoro-N-(5-(2-((1-methyl-1H-pyrazol-4-yl)amino)pyrimidin-4-yl)pyridin-2-yl)cyclopropane-1-carboxamide], the IC50 in assay [1] was less than 0.1 µM; in assay [2], 0.1 to 1 µM; in assay [3], less than 0.1 µM; in assay [4] it was less than 0.1 µM.

Turning to `Cn1cc(Nc2nccc(-c3ccc(NC(=O)C4CCC4)nc3)n2)cn1` [TDM-180823, N-(5-(2-((1-methyl-1H-pyrazol-4-yl)amino)pyrimidin-4-yl)pyridin-2-yl)cyclobutanemethyl], the concentration for half-maximal inhibition (IC50) in assay [1] lay in the range of 0.1 to 1 µM; in assay [2] it was 1 to 10 µM; in assay [3], 1 to 10 µM; in assay [4], 1 to 10 µM.

Take `CN1CCN(c2ccc(-c3ccnc(Nc4cnn(C)c4)n3)cc2)CC1` [TDM-180828]: the half-maximal inhibitory concentration (IC50) in assay [1] is 1 to 10 µM; in assay [2], no less than 10 µM; in assay [3] it was 1 to 10 µM; in assay [4] it was 1 to 10 µM.

Turning to `Cn1cc(Nc2nccc(-c3ccc(NC(=O)CC(F)(F)F)nc3)n2)cn1` [TDM-180830, 3,3,3-trifluoro-N-(5-(2-((1-methyl-1H-pyrazol-4-yl)amino)pyrimidin-4-yl)pyridin-2-yl)propanamide], the IC50 in assay [1] was less than 0.1 µM; in assay [2], 0.1 to 1 µM; in assay [3], 0.1 to 1 µM; in assay [4] it was 0.1 to 1 µM.

On to `CCCCS(=O)(=O)Nc1ccc(-c2ccnc(Nc3cnn(C)c3)n2)cc1` [TDM-180832, N-(4-(2-((1-methyl-1H-pyrazol-4-yl)amino)pyrimidin-4-yl)phenyl)butane-1-sulfonamide], for which the IC50 in assay [1] was 0.1 to 1 µM; in assay [2] it was 1 to 10 µM; in assay [3], 0.1 to 1 µM; in assay [4] it was 0.1 to 1 µM.

Regarding `Cn1cc(Nc2nccc(-c3ccc(NC(=O)CC#N)nc3)n2)cn1` [TDM-180833, 2-cyano-N-(5-(2-((1-methyl-1H-pyrazol-4-yl)amino)pyrimidin-4-yl)pyridin-2-yl)acetamide], the IC50 in assay [1] lay in the range of 0.1 to 1 µM; in assay [2] it was 1 to 10 µM; in assay [3], 0.1 to 1 µM; in assay [4] it was 0.1 to 1 µM.

On to `CCOCCS(=O)(=O)Nc1ccc(-c2ccnc(Nc3cnn(C)c3)n2)cc1` [TDM-180834, 2-ethoxyl-N-(4-(2-((1-methyl-1H-pyrazol-4-yl)amino)pyrimidin-4-yl)phenyl)ethyl-1-sulfonamide], for which the IC50 is less than 0.1 µM in assay [1], 1 to 10 µM in assay [2], 0.1 to 1 µM in assay [3] and less than 0.1 µM in assay [4].

Regarding `C=CCS(=O)(=O)Nc1ccc(-c2ccnc(Nc3cnn(C)c3)n2)cc1` [TDM-180844, N-(4-(2-((1-methyl-1H-pyrazol-4-yl)amino)pyrimidin-4-yl)phenyl)prop-2-ene-1-sulfonamide], the IC50 in assay [1] lay in the range of 0.1 to 1 µM; in assay [2] it was 1 to 10 µM; in assay [3] it was 0.1 to 1 µM; in assay [4] it was 0.1 to 1 µM.

As for `Cn1cc(Nc2nccc(-c3ccc(NC(=O)C(F)F)nc3)n2)cn1` [TDM-180849, 2,2-difluoro-N-(5-(2-((1-methyl-1H-pyrazol-4-yl)amino)pyrimidin-4-yl)pyridin-2-yl)acetamide], the IC50 in assay [1] was in the range of 0.1 to 1 µM; in assay [2], 1 to 10 µM; in assay [3] it was 0.1 to 1 µM; in assay [4] it was 0.1 to 1 µM.

On to `Cn1cc(Nc2nccc(-c3ccc(NS(=O)(=O)CCC(F)(F)F)cc3)n2)cn1` [TDM-180850, 3,3,3-trifluoro-N-(4-(2-((1-methyl-1H-pyrazol-4-yl)amino)pyrimidin-4-yl)phenyl)propyl-1-sulfonamide], for which the IC50 in assay [1] is 0.1 to 1 µM; in assay [2], no less than 10 µM; in assay [3], 0.1 to 1 µM; in assay [4] it was 0.1 to 1 µM.
